The subject of series [1] is CCRF-CEM. The series is described as follows: Cytotoxicity against human CEM cells at 10 uM after 48 hrs. It is filed as functional.
Series [2] has as its system HT-29. The series can be described thus: Cytotoxicity against human HT-29 cells after 48 hrs. It is filed as functional, cell-based. As to conditions: HT-29, 48 h.
Series [3] concerns MCF7. The series is described as follows: Cytotoxicity against human MCF7 cells after 48 hrs. Conditions: MCF7, 48 h. The class given is functional, cell-based.
Series [4] in a line: Cytotoxicity against human fibroblast cells at 10 uM after 48 hrs. The class given is cell-based.
In series [5] the test system is MCF7. The series is described as follows: Cytotoxicity against human MCF7 cells at 10 uM after 48 hrs. The class given is functional.
In series [6] the test system is NCI-H460. The series can be described thus: Cytotoxicity against human NCI-H460 cells after 48 hrs. As to conditions: NCI-H460, 48 h. It is filed as functional, cell-based.
The test system of series [7] is NCI-H460. The series is described as follows: Cytotoxicity against human NCI-H460 cells at 10 uM after 48 hrs. The class given is functional.
Series [8] relates to CCRF-CEM. The series can be described thus: Cytotoxicity against human CEM cells after 48 hrs. It is filed as functional, cell-based.
In series [9] the test system is HT-29. The series can be described thus: Cytotoxicity against human HT-29 cells at 10 uM after 48 hrs. It is filed as functional.

pIC50: −log10 of the molar value.

With `C[C@@H]1CC[C@]2(C(=O)O)CC[C@]34C[C@]3(C=C[C@@H]3[C@@]5(C)C[C@@H](O)[C@@H](O)C(C)(C)[C@@H]5CC[C@]34C)[C@@H]2[C@]1(C)O` [EUSCAPHIC ACID C], the Activity in series [1] was 19%; in series [4], 119%; in series [5] it was 10%; in series [7] it was 6%; in series [9], 1%. Besides, the pIC50 was 4.84 in series [2], 4.80 in series [3], 5.60 in [6] and 4.18 in [8].
For `C[C@@H]1CC[C@]2(C(=O)O)CC[C@]3(C)C(=CC[C@@H]4[C@@]5(C)CC[C@H](O)C(C)(C)[C@@H]5CC[C@]43C)[C@@H]2[C@]1(C)O` [POMOLIC ACID], the Activity in series [1] amounted to 92%; in series [4] it was 93%; in series [5] it was 79%; in [7], 82%; in series [9] it was 91%.
For the molecule `C[C@@H]1CC[C@]2(C(=O)O)CC[C@]3(C)C(=CC[C@@H]4[C@@]5(C)C[C@@H](O)[C@H](O)C(C)(C)[C@@H]5CC[C@]43C)[C@@H]2[C@]1(C)O` [TOMENTIC ACID], the Activity is recorded as 93% in series [1]; 114% in series [4]; 85% in [5]; 88% in series [7]; 86% in [9].
As to `C[C@@H]1CC[C@]2(C(=O)O)CC[C@]3(C)C(=CC[C@@H]4[C@@]5(C)CC[C@H](O)[C@@](C)(C=O)[C@@H]5CC[C@]43C)[C@@H]2[C@]1(C)O`, the Activity in series [1] amounted to 88%; in [4], 99%; in series [5] it was 93%; in series [7], 103%; in series [9] it was 91%.
For `C[C@@H]1CC[C@]2(C(=O)O)CC[C@]34C[C@]3(C=C[C@@H]3[C@@]5(C)CC[C@H](O)C(C)(C)[C@@H]5CC[C@]34C)[C@@H]2[C@]1(C)O` [EUSCAPHIC ACID A], the Activity is 83% in [1]; 100% in series [4]; 85% in series [5]; 62% in [7]; 87% in [9].
For `C=C1[C@H](C)CC[C@]2(C(=O)O)CC[C@]34C[C@]3(C=C[C@@H]3[C@@]5(C)C[C@@H](O)[C@H](O)C(C)(C)[C@@H]5CC[C@]34C)[C@H]12` [EUSCAPHIC ACID F] the same measures were 86%, 115%, 76%, 81% and 87%.
With `C[C@H]1[C@H](C)CC[C@]2(C(=O)O)CC[C@]3(C)C(=CC[C@@H]4[C@@]5(C)C[C@@H](O)[C@H](O)C(C)(C)[C@@H]5CC[C@]43C)[C@H]12` [COROSOLIC ACID], the Activity was 33% in [1]; 109% in series [4]; 75% in [5]; 89% in series [7]; 68% in series [9]. Besides, the pIC50 in series [2] is less than 5.00; in series [3] it was less than 5.00; in [6], less than 5.00; in series [8], 5.49.
As for `C[C@@H]1CC[C@]2(C(=O)O)CC[C@]3(C)C(=CC[C@@H]4[C@@]5(C)C[C@H](O)[C@H](O)C(C)(C)[C@@H]5CC[C@]43C)[C@@H]2[C@]1(C)O`, the Activity in series [1] is 73%; in [4], 107%; in series [5], 70%; in series [7] it was 78%; in series [9] it was 74%.
With `C[C@@H]1CC[C@]2(C(=O)O)CC[C@]3(C)C(=CC[C@@H]4[C@@]5(C)C[C@@H](O)[C@@H](O)C(C)(C)[C@@H]5CC[C@]43C)[C@@H]2[C@]1(C)O` [EUSCAPHIC ACID], the Activity was 89% in [1]; 95% in series [4]; 85% in series [5]; 104% in series [7]; 85% in series [9].
For `COc1cccc2c1C(=O)c1c(O)c3c(c(O)c1C2=O)C[C@@](O)(C(=O)CO)C[C@@H]3O[C@H]1C[C@H](N)[C@H](O)[C@H](C)O1` [DOXORUBICIN], the pIC50 in series [2] is 5.19; in series [6], 5.22; in series [8], 5.50.
Turning to `C[C@@H]1CC[C@]2(C(=O)O)CC[C@]34C[C@]3(C=C[C@@H]3[C@@]5(C)C[C@@H](O)[C@H](O)C(C)(C)[C@@H]5CC[C@]34C)[C@@H]2[C@]1(C)O` [EUSCAPHIC ACID D], the Activity in series [1] is on record as 55%; in [4], 111%; in series [5], 41%; in [7], 24%; in series [9], 13%. The pIC50 in series [2] is 4.46; in [3], 5.44; in series [6], 4.87; in [8], 5.05.
Take `C[C@H]1[C@H](C)CC[C@]2(C(=O)O)CC[C@]34C[C@]3(C=C[C@@H]3[C@@]5(C)C[C@@H](O)[C@H](O)C(C)(C)[C@@H]5CC[C@]34C)[C@H]12` [EUSCAPHIC ACID E]: the Activity is listed as 87% in series [1]; 110% in [4]; 90% in [5]; 91% in series [7]; 86% in series [9].
For `C[C@@H]1CC[C@]2(C(=O)O)CC[C@]3(C)C(=CC[C@@H]4[C@@]5(C)CC[C@H](O)[C@@](C)(CO)[C@@H]5CC[C@]43C)[C@@H]2[C@]1(C)O` [ROTUNDIC ACID] the same measures were 106%, 92%, 78%, 85% and 101%.
The matching figures for `C[C@@H]1CC[C@]2(C(=O)O)CC[C@]3(C)C(=CC[C@@H]4[C@@]5(C)CC[C@H](O)[C@](C)(CO)[C@@H]5CC[C@]43C)[C@@H]2[C@]1(C)O` [ROTUNGENIC ACID]: 97%, 99%, 98%, 106% and 91%.
For `C[C@@H]1CC[C@]2(C(=O)O)CC[C@]34C[C@]3(C=C[C@@H]3[C@@]5(C)CC[C@H](O)[C@@](C)(CO)[C@@H]5CC[C@]34C)[C@@H]2[C@]1(C)O` [EUSCAPHIC ACID B] the same measures were 80%, 109%, 84%, 99% and 93%.

One may read the pIC50 as the IC50 on a negative log10 scale, so that one unit is a factor of ten. A lower pIC50 goes with a large IC50.

The record behind these values is ChEMBL document CHEMBL1268858, “Cytotoxic Hexacyclic Triterpene Acids from Euscaphis japonica” (J Nat Prod, 2010).
